Source: paper PMC2804909 (Journal of medicinal chemistry, 2010)
No end group written: not given here.

T1: MNLNI (SAT C-terminal pentapeptide) (Haemophilus influenzae)
T1 chain: MNLNI

B1: HiOASS-A (protein)
chain: MAIYADNSYSIGNTPLVRLKHFGHNGNVVVKIEGRNPSYSVKCRIGANMVWQAEKDGTLTKGKEIVDATSGNTGIALAYVAAARGYKITLTMPETMSLERKRLLCGLGVNLVLTEGAKGMKGAIAKAEEIVASDPSRYVMLKQFENPANPQIHRETTGPEIWKDTDGKVDVVVAGVGTGGSITGISRAIKLDFGKQITSVAVEPVESPVISQTLAGEEVKPGPHKIQGIGAGFIPKNLDLSIIDRVETVDSDTALATARRLMAEEGILAGISSGAAVAAADRLAKLPEFADKLIVVILPSASERYLSTALFEGIEG

Experiments:
HiOASS-A = HiOASS-A (Haemophilus influenzae, UniProt P45040); assay: biochemical
[1] = molecular target: T1, MNLNI (SAT C-terminal pentapeptide); assay: fluorescence titration

Row | Molecule | Kd (HiOASS-A) [mM] | Kd [1] [mM]
1 | MNENI [MNENI] | ~7 | 
2 | B1 |  | 0.044
